For one data set, the system named is NF-κB. The data set is described as follows: NF-κB luciferase assay. The following applies: two mesenchymal GBM cell lines (G2, G88). Format: cell-based. As to the method:
(§1) Since radiation is a frontline treatment for GBM, the combination of ritanserin treatment and radiotherapy was tested. The radiosensitization of two different mesenchymal GBM stem cells, including a radioresistant cell type (i.e., G88 cells) is shown in FIGS. 9A and 9B. […] Chou-Talalay analysis indicated synergy. Ritanserin treatment also appears to affect downstream regulators of the radiation response. NF-κB has been indicated as a factor in radioresistance. Thus, the effect of ritanserin on NF-κB expression was also measured in two mesenchymal GBM cell lines using a NF-κB luciferase assay.

In data set [1] the test system is U251 GBM and VMM39 melanoma cell lines. Description: Annexin V cell death assay (flow cytometry). Format: cell-based, human. The following applies: compared to controls. As to the method: (§2) Single dye controls were used for compensation. […] Experiments were repeated several times per cell type.
To determine the mechanism of ritanserin cytotoxicity, ritanserin-treated cells were assayed for Annexin V-positivity as well as cellular permeability (with DNA dye 7-AAD).
Background: A flow cytometer gives signals particle by particle.

A further data set concerns GL261 mouse glioma cells. Description: syngeneic intracranial GL261 glioma model. Format: in vivo, C57BL/6 mice. As to the method:
(§3) Intracranial surgical implantation of tumor was as previously described. See Kefas et al., 2013. In brief, 400,000 U251 human glioblastoma or 50,000 GL261 mouse glioma suspended in 4 μL of serum-free DMEM were injected into anesthetized mice through a burr hole placed […] to the bregma. Treatment for 8-9 mice per group began 6-7 days post-tumor implantation via oral gavage and continued daily. Magnetic resonance images were taken at 3 weeks post-tumor implantation to assess tumor volume, and volumes were calculated as previously described. See Kefas et al., 2013. Mice were euthanized at 20% weight loss or with the first sign of neurological impairment.
(§4) DGKα inhibition decreases T-cell anergy. Thus, it is believed that a syngeneic, immunocompetent tumor model could show a stronger survival benefit. GL261 mouse glioma cells were implanted intracranially and treatment begun six days later. Ritanserin improved median survival to 64 days versus 36 days with vehicle. […] Ritanserin treatment also yielded decreases in tumor size and prolonged survival in other cell lines and xenograft models.

Data set [2] has as its system G2 mesenchymal GBM stem cell line. The data set is described as follows: intracranial G2 mesenchymal GBM stem cell xenograft survival. Format: in vivo, mice. The note with it: 50 mg/kg daily oral gavage vs vehicle.
The subject of data set [3] is VMM39 human melanoma cells. Description: subcutaneous melanoma tumor model. Format: in vivo, athymic nu/nu mice. The following applies: 50 mg/kg, compared to vehicle and 10 mg/kg ritanserin. The method, then: For subcutaneous tumors, 250,000 VMM39 human melanoma cells were injected subcutaneously into the left flank. After two weeks, tumors were measured daily using electronic calipers and tumor volume calculated. Mice were euthanized when tumors were greater than […] in any dimension or greater than 1000 mm^3 in volume.
as §4

Another data set concerns HIF-1α. The data set is described as follows: HIF-1α binding site reporter dual luciferase assay. The class given is cell-based, human. The following applies: U251, 20 μM ritanserin vs vehicle. As to the method: (§5) mTOR promoter reporter-RLuc or HIF-1α binding site-FLuc plasmids were transfected into serum-starved U251 and VMM39 one day after cell plating at 60-80% confluency using Fugene HD at 3:1 (Promega Corporation, Fitchburg, Wis., United States of America). Cells were fed several hours post-transfection and ritanserin was added. Cells were lysed after 36-48 hours and assayed with the Dual-Luciferase Reporter assay system kit (Promega Corporation, Fitchburg, Wis., United States of America) and Promega GloMax® 20/20 luminometer (Promega Corporation, Fitchburg, Wis., United States of America). Results were double-normalized using control empty vectors pRL and pGL3.
(§6) To compare to previous findings that DGKα inhibition affects mTOR transcription, U251 and VMM39 were transfected with an mTOR promoter reporter and treated with ritanserin or vehicle. […] Ritanserin therefore appears to mimic R59022's effects on known DGKα targets in the mTOR and HIF-1α signaling pathways. See Dominguez et al., 2013.

In data set [4] the test system is P70 S6K phosphorylation at T389/T421. Description: dot-blot phospho-proteomics assay in U251. Format: cell-based, human. The following applies: U251, 15 μM ritanserin, lysed at 24 hours. As to the method: (§7) Immunoblotting was performed as previously described. […] Antibodies were obtained from Cell Signaling Technology (Danvers, Mass., United States of America). Cells were lysed 24-72 hours post-treatment in 1× lysis buffer. The Human Phospho-Kinase Array kit (R&D Systems, Minneapolis, Minn., United States of America) was used to identify ritanserin targets. Immunoblots were performed with multiple replicates.
(§8) A dot-blot proteomics assay was used to investigate ritanserin downstream targets. U251 treated with 15 μM ritanserin were lysed at 24 hours. Several target proteins were substantially changed with ritanserin treatment. HSP60 decreased to 10% of baseline. Heat shock proteins are molecular targets in glioblastoma, and their loss prevents the unfolded protein response. See Ampie et al., 2015. HIF-1a and possibly mTOR up-regulate HSP60. P70 S6K phosphorylation at T389/T421 was decreased, as expected given DGKα activation of mTOR.

In a further data set the test system is HSP60. The data set is described as follows: dot-blot phospho-proteomics assay in U251. The class given is cell-based, human. The note with it: U251, 15 μM ritanserin, lysed at 24 hours. As to the method:
as §7, §8

Data set [5] deals with G88 mesenchymal GBM stem cell line. The data set is described as follows: intracranial G88 mesenchymal GBM stem cell xenograft survival. Format: in vivo, mice. The following applies: 50 mg/kg daily, started six days after implantation; vehicle 17.5 days. As to the method:
as §3
(§9) Glioblastomas can be categorized into four different subtypes based on gene expression patterns and clinical characterization. […] In particular, median survival increased from 17.5 days to 28.5 days in mice with xenografts from a G88 mesenchymal GBM stem cell line.

A further data set relates to mTOR promoter. Description: mTOR promoter reporter dual luciferase assay. The class given is cell-based, human. The note with it: U251 and VMM39, 20 μM ritanserin vs vehicle. As to the method: as §5, §6
The test system of a further data set is GL261 GBM line. Description: cell growth suppression, live cell count. The note with it: Mus musculus, GL261, 96 h; single dose, live cells four days post-treatment. The class given is cell-based. As to the method:
as §2
(§10) Several cancer cell lines were tested in vitro to determine whether ritanserin was cytotoxic. A single dose of ritanserin was sufficient to suppress cell growth in GBM lines U251 (human), GL261 (mouse), and JWL578 (human GBM stem cell line) with IC50s 5-10 μM, very similar to previous results with R59022. See also, Dominguez et al., 2013. […] Data from alamarBlue assays, a measure of cellular viability, provided similar IC50s. Immortalized astrocytes were viable above 20 μM ritanserin.

The test system of data set [6] is JWL578 GBM stem cell line. Description: cell growth suppression, live cell count. Format: cell-based. The note with it: Homo sapiens, 96 h; single dose, live cells four days post-treatment. As to the method:
as §2, §10

A further data set deals with U251 GBM line. Description: cell growth suppression, live cell count. The following applies: Homo sapiens, U-251, 96 h; single dose, live cells four days post-treatment. Format: cell-based. The method, then:
as §2, §10

Another data set deals with VMM39 melanoma line. Description: cell growth suppression, live cell count. The class given is cell-based. The note with it: Homo sapiens, VMM39, 96 h; single dose, live cells four days post-treatment.
In data set [7] the target is serotonin (5-hydroxytryptamine, 5-HT) subtype 5-HT2. The following applies: read-out: Ki as 5-HT2 antagonist; cited from earlier work.
A further data set has as its system Immortalized astrocytes. Description: viability of immortalized astrocytes. Format: cell-based.
Description: as §2

The conditions of data set [8]: previous studies; cited from earlier work.
In data set [9] the test system is mesenchymal GBM cell lines. The data set is described as follows: ritanserin treatment of 11 GBM cell lines of various sub-types. Format: cell-based. The note with it: in vitro.
Description: as §9

For data set [10], the system named is lung (A549) and pancreatic (MPanc-96) carcinoma cells. Description: ritanserin sensitivity after epithelial-mesenchymal transition. The class given is cell-based. The note with it: EMT induced with TNF-alpha and TGF-beta; 15 μM (lung), 10 μM (pancreatic). From the text: Thus it appears that the mesenchymal cancer phenotype can be preferentially targeted with ritanserin in GBM and in other cancers, as well.

For another data set, the system named is RhoA. Description: RhoA ELISA. The class given is cell-based. The following applies: G2 and G88 mesenchymal GBM cells. From the text:
(§11) Further, based on increases in unprenylated ras-related protein Rap1A in various GBM cells, it appears that ritanserin inhibits geranylgeranyltransferase type 1 (GGTase I).

The next data set addresses DGKα (Homo sapiens, UniProt P23743). Description: DGKα kinase assay with liposomes and purified enzyme. The class given is biochemical. The note with it: purified enzyme, liposomes; highest drug concentration 100 μM. The method, then:
To obtain purified protein, 293T cells were cultured in DMEM containing 5% fetal calf serum and 1% penicillin/streptomycin (GIBCO™, Thermo Fisher Scientific, Waltham, Mass., United States of America). The cells were transiently transfected with 40 μg of pcDNA3-FLAG-DGKα plasmid/plate. The transfection was done using lipofectamine 2000 at a 2:1 ratio of DNA:lipofectamine. The cells were harvested and homogenized in lysis buffer (10 mM Na2HPO4, pH 7.4, 50 mM β-glucopyranose, 50 mM NaF, 1 mM EDTA, 1 mM EGTA, 0.02% Triton X-100, phenylmethylsulfonyl fluoride, leupeptine, and pepstatin). The cell homogenate was centrifuged at 16,000×g at 4° C. for 10 minutes. The supernatant was immunoprecipitated with anti-FLAG (M2) beads for 2 hours at 4° C. The beads were packed onto a screening column and washed five times with the lysis buffer. The protein was eluted with five successive 200 μl fractions of 0.5 mg/ml of FLAG peptide (LifeTein, LLC, Somerset, N.J., United States of America). The elution fractions containing DGKα were combined and dialyzed three times against 10 mM Na2HPO4 (pH 7.4), and 50 mM β-glucopyranose, 50 mM NaF, 1 mM EDTA, and 1 mM EGTA. The purified DGKs were quantified with UV absorbance and by comparing DGKα bands with bovine serum albumin standards on Coomassie-blue stained SDS-PAGE gels. […]

The test system of a further data set is p53 S15. The data set is described as follows: immunoblot of p53 S15 phosphorylation. The following applies: extracts from U251 and VMM39 cell lines. Format: cell-based, human. The method, then:
as §7
Decreased p53 S15 can cause chemosensitization to other cytotoxic reagents. p53 is hyper-phosphorylated after serine 15 phosphorylation in DNA-damaged cells as an […], pro-transcriptional pathway, and antagonism of S15 phosphorylation is associated with increasing sensitivity to DNA-damaging agents. See Loughery et al., 2014; and Wittlinger et al., 2007. Immunoblots of extracts from both U251 and VMM39 cell lines confirmed that ritanserin decreases S15 phosphorylation.

The conditions of data set [11]: previous studies (Leysen et al., 1985); cited from earlier work.
In data set [12] the test system is geranylgeranyltransferase type 1 (GGTase I). The data set is described as follows: unprenylated Rap1A immunoblot. Format: cell-based. The following applies: various GBM cells.
Description: as §11
(In western blotting, separated proteins are transferred to a membrane and probed.)

Data set [13] has as its system U251 human glioblastoma cells. Description: orthotopic intracranial U251 xenograft survival. Format: in vivo, athymic nu/nu mice. The note with it: 50 mg/kg daily oral gavage, started one week after injection. The method, then:
as §3
Athymic nu/nu mice were injected with U251 cells and one week later began daily oral gavage treatment.

Data set [14] concerns mesenchymal GBM stem cells (G2, G88). Description: radiosensitization, soft agar colony assay. The note with it: 1.25 μM ritanserin, 4 Gy radiation, colonies after two weeks. Format: cell-based. The method, then:
as §1

The test system of another data set is B16 melanoma line. The data set is described as follows: cell growth suppression, live cell count. The class given is cell-based. The note with it: Mus musculus, B16, 96 h; single dose, live cells four days post-treatment.

Molecules are shown by their SMILES.

Chain of DGKα (P23743 whole entry, species assumed): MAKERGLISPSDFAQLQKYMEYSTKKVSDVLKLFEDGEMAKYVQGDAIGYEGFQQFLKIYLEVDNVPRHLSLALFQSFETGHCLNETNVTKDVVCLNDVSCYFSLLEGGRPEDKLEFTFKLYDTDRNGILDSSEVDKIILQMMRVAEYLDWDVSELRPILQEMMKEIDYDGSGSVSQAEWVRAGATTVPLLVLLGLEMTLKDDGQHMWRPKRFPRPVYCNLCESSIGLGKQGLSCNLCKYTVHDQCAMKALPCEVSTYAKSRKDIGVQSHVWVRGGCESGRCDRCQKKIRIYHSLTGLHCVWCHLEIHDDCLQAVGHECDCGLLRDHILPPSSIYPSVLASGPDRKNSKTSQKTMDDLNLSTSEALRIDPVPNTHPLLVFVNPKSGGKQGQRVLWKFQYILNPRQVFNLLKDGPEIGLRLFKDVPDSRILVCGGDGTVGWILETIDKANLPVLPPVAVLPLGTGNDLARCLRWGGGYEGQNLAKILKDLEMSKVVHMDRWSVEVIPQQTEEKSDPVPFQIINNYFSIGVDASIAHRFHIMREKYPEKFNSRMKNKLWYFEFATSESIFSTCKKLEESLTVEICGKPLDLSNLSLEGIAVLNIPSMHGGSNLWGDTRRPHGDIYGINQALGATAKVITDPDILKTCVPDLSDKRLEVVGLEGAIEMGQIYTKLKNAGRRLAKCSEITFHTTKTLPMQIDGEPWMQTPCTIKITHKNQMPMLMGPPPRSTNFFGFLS

In general, IC50 refers to the concentration that gives 50% inhibition. Read a high IC50 as weaker potency. One may read the Ki as a measure of affinity in units of concentration, obtained from inhibition or displacement. Regarding `Cc1nc2sccn2c(=O)c1CCN1CCC(=C(c2ccc(F)cc2)c2ccc(F)cc2)CC1` [ritanserin, 6-[2-[4-[bis(4-fluorophenyl)methylidene]piperidin-1-yl]ethyl]-7-methyl-[1,3]thiazolo[3,2-a]py-rimidin-5-one], the NF-κB expression entry with NF-κB is reported as “decreased NF-κB expression”. The “Annexin V positivity” value in data set [1] is on record as “increased Annexin V”. Besides, the median survival is 64 days in the data set with GL261 mouse glioma cells (50 mg/kg daily oral, started six days after implantation, vehicle 36 days); “increased” in data set [2]; 28.5 days in [5]. Further, the “tumor size by magnetic resonance imaging” value with GL261 mouse glioma cells (three weeks after implantation, vs vehicle) was “decreased tumor size”. In data set [3], the tumor formation entry is listed as “delayed tumor formation”. In addition, in the data set with HIF-1α, the HIF-1α reporter activity result is reported as “loss of HIF-1α reporter activity”. For the same compound, in data set [4], the “P70 S6K phosphorylation at T389/T421” value was “decreased”. Further, the HSP60 level in the data set on HSP60 is given as 10 % of baseline. Also, the mTOR promoter activity result in the data set with mTOR promoter was “strongly decreased”. The 50% inhibitory concentration (IC50) is 5 to 10 µM in the data set with GL261 GBM line; 5 to 10 µM in data set [6]; 5 to 10 µM with U251 GBM line; 10 to 15 µM in the data set with VMM39 melanoma line; 9 µM against DGKα; 10 to 15 µM in the data set with B16 melanoma line. Besides, in [7], the inhibition constant (Ki) was 0.00039 µM. Besides, the “ritanserin concentration at which astrocytes were viable” value with Immortalized astrocytes is “above 20 μM”. The oral bioavailability result in data set [8] is recorded as “orally bioavailable”. In data set [9], the “sensitivity of mesenchymal GBM cell lines relative to other subtypes” value is “three to four times more sensitive”. In data set [10], the “sensitivity to ritanserin after EMT” value is given as “more sensitive”. In the data set on RhoA, the RhoA expression entry was “inhibit RhoA expression”. The “p53 S15 phosphorylation” value in the data set on p53 S15 is listed as “decreases”. Moreover, the brain exposure result in [11] is given as “reach the brain in meaningful concentrations”. Besides, the “GGTase I inhibition inferred from unprenylated Rap1A” value in data set [12] is listed as “inhibits”. The survival result in data set [13] is reported as “increased survival significantly”. Moreover, the “radiosensitization, colony number” value in [14] was “clear radiosensitization effect”.

With `Cc1nc2sccn2c(=O)c1CCN1CCC(=C(c2ccccc2)c2ccc(F)cc2)CC1` [R59022], half-maximal inhibition on DGKα (IC50) was put at 20 µM.
